Assay results as given in ChEMBL document CHEMBL1201862, “PubChem BioAssay data set” (2004).
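Growth conditions: 96-well plates. Treatment: test compound, 48 hours, 5 concentrations. Analysis: linear interpolation between bracketing concentrations; unreached endpoints set to highest concentration. GI50 is the concentration that inhibits growth by half.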 Calls of active or inactive are those of the source. No stated cut-off is given here; in the data, active = GI50 up to about 1.1 µM and inactive = higher.

Key:
Test in all cases: NCI tumour cell line growth inhibition, 48 h
HCC 2998 = system: HCC 2998
RPMI-8226 = system: RPMI-8226
SNB-19 = system: SNB-19
SK-MEL-5 = system: SK-MEL-5
MDA-MB-435 = system: MDA-MB-435
MOLT-4 = system: MOLT-4
NCI-H460 = system: NCI-H460
T47D = system: T47D
OVCAR-4 = system: OVCAR-4
SF-295 = system: SF-295
SN12C = system: SN12C
OVCAR-5 = system: OVCAR-5
COLO 205 = system: COLO 205
SF-539 = system: SF-539
UACC-257 = system: UACC-257
RXF 393 = system: RXF 393
A498 = system: A498
OVCAR-8 = system: OVCAR-8
SF-268 = system: SF-268
SK-OV-3 = system: SK-OV-3
SW-620 = system: SW-620
HCT-116 = system: HCT-116
K562 = system: K562
CAKI-1 = system: CAKI-1
A549 = system: A549
U-251 = system: U-251
DU-145 = system: DU-145
BT-549 = system: BT-549
TK-10 = system: TK-10
LOX IMVI = system: LOX IMVI
OVCAR-3 = system: OVCAR-3
PC-3 = system: PC-3
Hs-578T = system: Hs-578T
UACC-62 = system: UACC-62
NCI-H522 = system: NCI-H522
HT-29 = system: HT-29
UO-31 = system: UO-31
NCI-H226 = system: NCI-H226
KM12 = system: KM12
SK-MEL-2 = system: SK-MEL-2
MDA-N = system: MDA-N
Malme-3M = system: Malme-3M
SR = system: SR
M14 = system: M14
NCI-H23 = system: NCI-H23
SNB-75 = system: SNB-75
ACHN = system: ACHN
786-0 = system: 786-0
CCRF-CEM = system: CCRF-CEM
EKVX = system: EKVX
IGROV-1 = system: IGROV-1
HL-60 = system: HL-60
HCT-15 = system: HCT-15
MDA-MB-231 = system: MDA-MB-231
SK-MEL-28 = system: SK-MEL-28
NCI/ADR-RES = system: NCI/ADR-RES
HOP-92 = system: HOP-92
MCF7 = system: MCF7
HOP-62 = system: HOP-62
KM-20L2 = system: KM-20L2
LXFL 529 = system: LXFL 529
XF498 = system: XF498
DMS-114 = system: DMS-114
M19-MEL = system: M19-MEL
SNB-78 = system: SNB-78
DMS-273 = system: DMS-273

## NC(=O)c1ccc2c(c1)S(=O)(=O)c1ccccc1C2=O
HCC 2998
  GI50: > 100 µM (inactive)
RPMI-8226
  GI50: > 100 µM (inactive)
SNB-19
  GI50: > 100 µM (inactive)
SK-MEL-5
  GI50: > 100 µM (inactive)
MDA-MB-435
  GI50: > 100 µM (inactive)
MOLT-4
  GI50: > 100 µM (inactive)
NCI-H460
  GI50: > 100 µM (inactive)
T47D
  GI50: > 100 µM (inactive)
OVCAR-4
  GI50: > 100 µM (inactive)
SF-295
  GI50: 57.8 µM (inactive)
SN12C
  GI50: > 100 µM (inactive)
OVCAR-5
  GI50: > 100 µM (inactive)
COLO 205
  GI50: > 100 µM (inactive)
SF-539
  GI50: 46.6 µM (inactive)
UACC-257
  GI50: > 100 µM (inactive)
RXF 393
  GI50: > 100 µM (inactive)
A498
  GI50: > 100 µM (inactive)
OVCAR-8
  GI50: 33.1 µM (inactive)
SF-268
  GI50: 35.9 µM (inactive)
SK-OV-3
  GI50: 75 µM (inactive)
SW-620
  GI50: > 100 µM (inactive)
HCT-116
  GI50: > 100 µM (inactive)
K562
  GI50: > 100 µM (inactive)
CAKI-1
  GI50: > 100 µM (inactive)
A549
  GI50: > 100 µM (inactive)
U-251
  GI50: 73.3 µM (inactive)
DU-145
  GI50: > 100 µM (inactive)
BT-549
  GI50: > 100 µM (inactive)
TK-10
  GI50: > 100 µM (inactive)
LOX IMVI
  GI50: > 100 µM (inactive)
OVCAR-3
  GI50: > 100 µM (inactive)
PC-3
  GI50: > 100 µM (inactive)
Hs-578T
  GI50: 58.6 µM (inactive)
UACC-62
  GI50: > 100 µM (inactive)
NCI-H522
  GI50: > 100 µM (inactive)
HT-29
  GI50: > 100 µM (inactive)
UO-31
  GI50: > 100 µM (inactive)
NCI-H226
  GI50: > 100 µM (inactive)
KM12
  GI50: > 100 µM (inactive)
SK-MEL-2
  GI50: > 100 µM (inactive)
MDA-N
  GI50: > 100 µM (inactive)
Malme-3M
  GI50: > 100 µM (inactive)
SR
  GI50: > 100 µM (inactive)
M14
  GI50: > 100 µM (inactive)
NCI-H23
  GI50: > 100 µM (inactive)
SNB-75
  GI50: 46.8 µM (inactive)
ACHN
  GI50: > 100 µM (inactive)
786-0
  GI50: 64.6 µM (inactive)
CCRF-CEM
  GI50: > 100 µM (inactive)
EKVX
  GI50: 10 µM (inactive)
IGROV-1
  GI50: > 100 µM (inactive)
HL-60
  GI50: > 100 µM (inactive)
HCT-15
  GI50: > 100 µM
MDA-MB-231
  GI50: 65.2 µM (inactive)
SK-MEL-28
  GI50: > 100 µM (inactive)
NCI/ADR-RES
  GI50: > 100 µM (inactive)
HOP-92
  GI50: 63.2 µM (inactive)
MCF7
  GI50: > 100 µM (inactive)
HOP-62
  GI50: 45 µM (inactive)

## COCC(OC)C(CC=C(C#N)C#N)OC (stereo unspecified)
KM-20L2
  GI50: > 100 µM (inactive)
HCC 2998
  GI50: > 100 µM (inactive)
RPMI-8226
  GI50: > 100 µM (inactive)
SNB-19
  GI50: > 100 µM (inactive)
SK-MEL-5
  GI50: > 100 µM (inactive)
MOLT-4
  GI50: > 100 µM (inactive)
LXFL 529
  GI50: > 100 µM (inactive)
XF498
  GI50: > 100 µM (inactive)
OVCAR-4
  GI50: > 100 µM (inactive)
SF-295
  GI50: > 100 µM (inactive)
SN12C
  GI50: > 100 µM (inactive)
OVCAR-5
  GI50: > 100 µM (inactive)
COLO 205
  GI50: > 100 µM (inactive)
SF-539
  GI50: > 100 µM (inactive)
UACC-257
  GI50: > 100 µM (inactive)
DMS-114
  GI50: > 100 µM (inactive)
A498
  GI50: > 100 µM (inactive)
OVCAR-8
  GI50: > 100 µM (inactive)
SF-268
  GI50: > 100 µM (inactive)
SK-OV-3
  GI50: > 100 µM (inactive)
SW-620
  GI50: > 100 µM (inactive)
HCT-116
  GI50: > 100 µM (inactive)
K562
  GI50: > 100 µM (inactive)
CAKI-1
  GI50: > 100 µM (inactive)
A549
  GI50: > 100 µM (inactive)
M19-MEL
  GI50: > 100 µM (inactive)
SNB-78
  GI50: > 100 µM (inactive)
U-251
  GI50: > 100 µM (inactive)
TK-10
  GI50: > 100 µM (inactive)
LOX IMVI
  GI50: > 100 µM (inactive)
DMS-273
  GI50: > 100 µM (inactive)
OVCAR-3
  GI50: > 100 µM (inactive)
UACC-62
  GI50: > 100 µM (inactive)
NCI-H522
  GI50: > 100 µM (inactive)
HT-29
  GI50: > 100 µM (inactive)
UO-31
  GI50: > 100 µM (inactive)
KM12
  GI50: > 100 µM (inactive)
SK-MEL-2
  GI50: > 100 µM (inactive)
Malme-3M
  GI50: > 100 µM (inactive)
SR
  GI50: > 100 µM (inactive)
M14
  GI50: > 100 µM (inactive)
NCI-H23
  GI50: > 100 µM (inactive)
ACHN
  GI50: > 100 µM (inactive)
786-0
  GI50: > 100 µM (inactive)
CCRF-CEM
  GI50: > 100 µM (inactive)
EKVX
  GI50: > 100 µM (inactive)
IGROV-1
  GI50: > 100 µM (inactive)
HL-60
  GI50: > 100 µM (inactive)
HCT-15
  GI50: > 100 µM
SK-MEL-28
  GI50: > 100 µM (inactive)
HOP-92
  GI50: > 100 µM (inactive)
HOP-62
  GI50: > 100 µM (inactive)
